Measured values: patent US20140296064A1, “PESTICIDAL METHODS USING SUBSTITUTED 3-PYRIDYL THIAZOLE COMPOUNDS AND DERIVATIVES FOR COMBATING ANIMAL PESTS I” (BASF SE, priority 2011, published 2014)

What was measured:
Assay type in all cases: in vivo
[1] = tested on: Cowpea Aphid (Aphis craccivora); experiment: Cowpea aphid potted plant spray test; conditions: potted cowpea plants sprayed, population reduction assessed after 24, 72 and 120 hours, read-out: mortality in comparison with untreated controls
Procedure: B.4 Cowpea Aphid (Aphis craccivora)
The active compound was dissolved at the desired concentration in a mixture of 1:1 (vol:vol) distilled water: acetone. The test solution was prepared at the day of use.
Potted cowpea plants colonized with approximately 100-150 aphids of various stages were sprayed after the pest population had been recorded. Population reduction was assessed after 24, 72, and 120 hours.

[2] = tested on: Silverleaf Whitefly (bemisia argentifolii); experiment: Silverleaf whitefly cotton plant spray test; conditions: 72 h, cotton plants sprayed, whitefly adults, assessed 3 days after treatment, read-out: mortality in comparison with untreated controls
Description: B.5 Silverleaf Whitefly (bemisia argentifolii)
The active compounds were formulated in cyclohexanone as a 10,000 ppm solution supplied in tubes. The tubes were inserted into an automated electrostatic sprayer equipped with an atomizing nozzle and they serve as stock solutions for which lower dilutions are made in 50% acetone: 50% water (v/v). A nonionic surfactant (Kinetic®) was included in the solution at a volume of 0.01% (v/v).
Cotton plants at the cotyledon stage (one plant per pot) were sprayed by an automated electrostatic plant sprayer equipped with an atomizing spray nozzle. The plants were dried in the sprayer fume hood and then removed from the sprayer. Each pot was placed into a plastic cup and about 10 to 12 whitefly adults (approximately 3-5 days old) were introduced. The insects were collected using an aspirator and a nontoxic Tygon® tubing connected to a barrier pipette tip. The tip, containing the collected insects, were then gently inserted into the soil containing the treated plant, allowing insects to crawl out of the tip to reach the foliage for feeding. Cups were covered with a reusable screened lid. Test plants were maintained in a growth room at about 25° C. and about 20-40% relative humidity for 3 days, avoiding direct exposure to fluorescent light (24 hour photoperiod) to prevent trapping of heat inside the cup. Mortality was assessed 3 days after treatment, compared to untreated control plants.

[3] = tested on: Vetch aphid (Megoura viciae); experiment: Vetch aphid leaf disk spray test (contact or systemic); conditions: foliar, 120 h, sprayed broad bean leaf disks, assessed after 5 days, read-out: mortality in comparison with untreated controls
Procedure: B.1 Vetch aphid (Megoura viciae)
For evaluating control of vetch aphid (Megoura viciae) through contact or systemic means the test unit consisted of 24-well-microtiter plates containing broad bean leaf disks.
The compounds were formulated using a solution containing 75% v/v water and 25% v/v DMSO. Different concentrations of formulated compounds were sprayed onto the leaf disks at 2.5 μl, using a custom built micro atomizer, at two replications. After application, the leaf disks were air-dried and 5-8 adult aphids were placed on the leaf disks inside the microtiter plate wells. The aphids were then allowed to suck on the treated leaf disks and were incubated at about 23±1° C. and about 50±5% relative humidity for 5 days. Aphid mortality and fecundity were then visually assessed.

[4] = tested on: Green Peach Aphid (Myzus persicae); experiment: Green peach aphid artificial diet test (systemic); conditions: 72 h, in aphid diet under artificial membrane, assessed after 3 days, read-out: mortality in comparison with untreated controls
Description: B.2 Green Peach Aphid (Myzus persicae)
For evaluating control of green peach aphid (Myzus persicae) through systemic means the test unit consisted of 96-well-microtiter plates containing liquid artificial diet under an artificial membrane.
The compounds were formulated using a solution containing 75% v/v water and 25% v/v DMSO. Different concentrations of formulated compounds were pipetted into the aphid diet, using a custom built pipetter, at two replications. After application, 5-8 adult aphids were placed on the artificial membrane inside the microtiter plate wells. The aphids were then allowed to suck on the treated aphid diet and were incubated at about 23±1° C. and about 50±5% relative humidity for 3 days. Aphid mortality and fecundity was then visually assessed.

[5] = tested on: Cotton aphid (Aphis gossypi); experiment: Cotton aphid cotyledon dip test; conditions: 120 h, cotton cotyledons dipped, mortality counts after 5 days, read-out: mortality in comparison with untreated controls
Description: B.3 Cotton aphid (Aphis gossypi)
The active compounds were formulated in 50:50 (vol:vol) acetone: water and 100 ppm Kinetica™ surfactant.
Cotton plants at the cotyledon stage (one plant per pot) were infested by placing a heavily infested leaf from the main colony on top of each cotyledon. The aphids were allowed to transfer to the host plant overnight, and the leaf used to transfer the aphids was removed. The cotyledons were dipped in the test solution and allowed to dry. After 5 days, mortality counts were made.

Structure (SMILES)	mortality at 500 ppm [1] [%]	mortality at 500 ppm [2] [%]	mortality at 800 ppm [3] [%]	mortality at 500 ppm [4] [%]	mortality at 500 ppm [5] [%]
CCN(CCS(C)(=O)=O)C(=O)c1sc(-c2cccnc2)nc1C(F)(F)F [C.5, 2-Pyridin-3-yl-4-trifluoromethyl-thiazole-5-carboxylic acid ethyl-(2-methanesulfonyl-ethyl)-amide]	≥ 75				
CCN(CC[S+](C)[O-])C(=O)c1sc(-c2cccnc2)nc1C(F)(F)F (centres unmarked) [C.4, 2-Pyridin-3-yl-4-trifluoromethyl-thiazole-5-carboxylic acid ethyl-(2-methanesulfinyl-ethyl)-amide]	≥ 75	≥ 75			
CSCCNC(=O)c1sc(-c2cccnc2)nc1C(F)(F)F [C.2, 2-Pyridin-3-yl-4-trifluoromethyl-thiazole-5-carboxylic acid (2-methylsulfanyl-ethyl)amide]	≥ 75		≥ 75	≥ 75	
O=C(NC1CSC1)c1sc(-c2cccnc2)nc1C(F)(F)F [C.6, 2-Pyridin-3-yl-4-trifluoromethyl-thiazole-5-carboxylic acid thietan-3-ylamide]			≥ 75		
CCN(CCSC)C(=O)c1sc(-c2cccnc2)nc1C(F)(F)F [C.3, 2-Pyridin-3-yl-4-trifluoromethyl-thiazole-5-carboxylic acid ethyl-(2-methylsulfanyl-ethyl)-amide]	≥ 75				≥ 75
CCN(C(=O)c1sc(-c2cccnc2)nc1C(F)(F)F)C1C[S+]([O-])C1 (centres unmarked) [C.8, 2-Pyridin-3-yl-4-trifluoromethyl-thiazole-5-carboxylic acid ethyl-(1-oxo-1lambda*4*-thietan-3-yl)-amide]		≥ 75			
CCN(C(=O)c1sc(-c2cccnc2)nc1C(F)(F)F)C1CSC1 [C.7, 2-Pyridin-3-yl-4-trifluoromethyl-thiazole-5-carboxylic acid ethyl-thietan-3-yl-amide]	≥ 75	≥ 75			
CN(C)C(=O)c1sc(-c2cccnc2)nc1C(F)(F)F [C.1, 2-Pyridin-3-yl-4-trifluoromethyl-thiazole-5-carboxylic acid dimethylamide]	≥ 75	≥ 75		≥ 75	
CN(C)C(=O)c1sc(-c2cccnc2)nc1Cl [C.11, 4-Chloro-N, N-dimethyl-2-(3-pyridyl)thiazole-5-carboxamide]	≥ 75	≥ 75	≥ 75	≥ 75	≥ 75
